Each structure is given as a SMILES string. pIC50: −log10 of the molar value. Calls of active or inactive are those of the source. The calls are words filed in the database; no cut-off is given here.

The values below come from ChEMBL document CHEMBL4825684, “Design, synthesis and biological evaluation of N-anthraniloyl tryptamine derivatives as pleiotropic molecules for the therapy of malignant glioma” (Eur J Med Chem, 2021).

Test [1] concerns the target T1, Prostaglandin G/H synthase 2 (Homo sapiens, UniProt P35354).
T1 sequence (P35354 whole entry): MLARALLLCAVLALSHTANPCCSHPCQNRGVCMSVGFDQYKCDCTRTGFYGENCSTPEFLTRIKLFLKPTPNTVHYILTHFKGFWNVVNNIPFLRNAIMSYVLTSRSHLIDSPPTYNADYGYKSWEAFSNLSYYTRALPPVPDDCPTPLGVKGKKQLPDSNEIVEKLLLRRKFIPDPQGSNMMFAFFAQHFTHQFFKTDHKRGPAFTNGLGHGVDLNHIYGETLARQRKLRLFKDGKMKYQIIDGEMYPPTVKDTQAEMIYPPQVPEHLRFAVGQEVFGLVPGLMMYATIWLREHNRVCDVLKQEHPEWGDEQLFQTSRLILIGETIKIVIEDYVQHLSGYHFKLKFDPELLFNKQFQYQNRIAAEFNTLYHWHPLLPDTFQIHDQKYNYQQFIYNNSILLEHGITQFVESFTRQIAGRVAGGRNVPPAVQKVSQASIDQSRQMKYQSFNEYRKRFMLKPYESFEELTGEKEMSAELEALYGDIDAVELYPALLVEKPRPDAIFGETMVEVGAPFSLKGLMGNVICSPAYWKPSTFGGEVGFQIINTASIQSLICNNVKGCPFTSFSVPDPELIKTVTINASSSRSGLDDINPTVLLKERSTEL
The test is described as follows: Inhibition of human COX2 assessed as fluorescence by microplate reader.

For test [2], the system named is BV-2. The test is described as follows: Inhibition of MMP9 production in mouse BV-2 cells co-cultured with rat C6 glioma cells at 2 uM incubated for 24 hrs by Western blot analysis. It counts as functional, cell-based.
Test [3] has as its target Tyrosine-protein kinase JAK2 (Homo sapiens) (UniProt O60674). The test is described as follows: Inhibition JAK2 phosphorylation in human U-251 cells incubated up to 8 hrs by Western blot analysis. Format: cell-based. The settings on record: time hrs <=8.
Test [4] relates to U-87 MG. The test is described as follows: Antiproliferative activity against human U-87 MG cells assessed as decrease in proliferation at 4 uM measured after 24 hrs by EdU assay relative to control. It counts as functional, cell-based. Conditions: U-87MG ATCC.
In test [5] the test system is U-87 MG. The test is described as follows: Induction of apoptosis in human U-87 MG cells assessed as late apoptotic cells at 4 uM incubated for 48 hrs by […] double staining based flow cytometry assay (reference value: 0.61%). It counts as functional, U-87MG ATCC.
The subject of test [6] is U-251. The test is described as follows: Reduction in MMP9 expression in human U-251 cells incubated for 24 hrs by Western blot analysis. It counts as functional, cell-based. The settings on record: dose 1-4 µM.
The test system of test [7] is C6. The test is described as follows: Antitumor activity against rat C6 cells inoculated orthotopic Sprague-Dawley rat model assessed as decrease in VEGF-A in tumor tissue at 50 mg/kg, ip twice a day treated 3 days after tumor cell injection measured for 13 days after tumor implantation by Western blot analysis. It counts as functional, organism-based. Conditions: time 3.0 day.

Test [8] deals with Rattus norvegicus. The test is described as follows: Anxiolytic activity in rat C6 cells inoculated orthotopic Sprague-Dawley rat model assessed as increase in time spent in central part at 50 mg/kg, ip twice a day administered for 13 days of tumor implantation by open field test relative to control. Conditions: time 13.0 day. It counts as functional, organism-based.
The test system of test [9] is C6. The test is described as follows: Antitumor activity against rat C6 cells inoculated orthotopic Sprague-Dawley rat model assessed as tumor necrosis at 50 mg/kg, ip twice a day administered for 13 days of tumor implantation by hematoxylin-eosin staining analysis. It counts as functional, organism-based. The settings on record: time 13.0 day.

Chain of Tyrosine-protein kinase JAK2 (Homo sapiens) (O60674 whole entry): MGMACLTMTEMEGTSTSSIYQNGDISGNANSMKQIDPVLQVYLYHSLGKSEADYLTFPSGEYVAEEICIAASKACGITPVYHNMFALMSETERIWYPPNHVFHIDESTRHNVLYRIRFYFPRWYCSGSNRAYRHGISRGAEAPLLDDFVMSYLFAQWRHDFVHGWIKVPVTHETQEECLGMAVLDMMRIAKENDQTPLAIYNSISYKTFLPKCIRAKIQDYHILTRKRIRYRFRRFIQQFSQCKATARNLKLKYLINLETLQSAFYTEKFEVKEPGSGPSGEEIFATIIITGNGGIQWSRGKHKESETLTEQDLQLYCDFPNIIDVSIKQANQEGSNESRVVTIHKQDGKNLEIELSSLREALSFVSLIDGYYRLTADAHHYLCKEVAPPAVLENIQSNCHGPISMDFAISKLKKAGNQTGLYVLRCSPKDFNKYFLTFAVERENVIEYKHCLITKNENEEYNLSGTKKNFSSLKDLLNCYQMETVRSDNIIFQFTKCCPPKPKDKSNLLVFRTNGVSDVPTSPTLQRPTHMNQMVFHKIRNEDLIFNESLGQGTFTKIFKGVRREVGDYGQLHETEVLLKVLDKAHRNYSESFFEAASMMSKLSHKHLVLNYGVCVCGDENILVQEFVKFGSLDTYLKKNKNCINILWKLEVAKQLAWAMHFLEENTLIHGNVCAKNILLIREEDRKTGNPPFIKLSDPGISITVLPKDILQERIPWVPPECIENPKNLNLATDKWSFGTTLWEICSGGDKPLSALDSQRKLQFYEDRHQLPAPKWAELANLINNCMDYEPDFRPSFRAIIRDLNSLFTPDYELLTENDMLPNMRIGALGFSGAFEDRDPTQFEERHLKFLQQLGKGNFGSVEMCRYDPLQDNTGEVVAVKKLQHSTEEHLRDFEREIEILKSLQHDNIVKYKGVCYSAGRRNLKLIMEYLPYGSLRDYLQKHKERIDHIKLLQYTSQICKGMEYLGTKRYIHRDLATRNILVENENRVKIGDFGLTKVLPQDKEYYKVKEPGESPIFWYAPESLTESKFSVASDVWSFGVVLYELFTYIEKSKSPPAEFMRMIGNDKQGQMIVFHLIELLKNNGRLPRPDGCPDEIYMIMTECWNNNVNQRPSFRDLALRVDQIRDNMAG

For `COc1cc(Nc2ccccc2C(=O)NCCc2c[nH]c3ccccc23)cc(OC)c1OC`, the negative logarithm of the IC50 (pIC50) in test [1] was 5.08. The inhibition entry in [2] and in test [3] was “Active” throughout. For the same compound, the outcome in [4], in test [7], in test [8] and in [9] was Active. The Activity is 3.78% in [5] and “Dose-Dependent Effect” in test [6].
